Assay results published in US10251874B2, “Crystalline forms of a JAK inhibitor compound” (THERAVANCE BIOPHARMA R&D IP, LLC, priority 2017, dated 2019).

Tests used:
[1] = test system: IL-2 stimulated pSTAT5 in CD4+ T cells; experiment: Assay 4: Inhibition of IL-2 stimulated pSTAT5 in CD4+ T cells; format: cell-based; conditions: CD4+ T cells in human PBMCs, flow cytometry; read-out: pIC50, inhibition of IL-2 stimulated pSTAT5 (converted)
Protocol: The potency of the test compound for inhibition of interleukin-2 (IL-2)/anti-CD3 stimulated STATS phosphorylation was measured in CD4-positive (CD4+) T cells in human peripheral blood mononuclear cells (PBMCs) isolated from human whole blood (Stanford Blood Center) using flow cytometry. Because IL-2 signals through JAK, this assay provides a measure of JAK cellular potency.
CD4+T cells were identified using a […] (PE) conjugated anti-CD4 antibody (Clone RPA-T4, BD Biosciences), while an Alexa Fluor 647 conjugated anti-pSTAT5 antibody (pY694, Clone 47, BD Biosciences) was used to detect STATS phosphorylation.
(1) The protocol of Assay 3 paragraph (1) was followed with the exception that the cytokine stimulation with anti-CD3 was performed for 30 min instead of 24 h. […] After incubation, cells were washed twice in FACS buffer before being analyzed using a LSRII flow cytometer (BD Biosciences). To determine the inhibitory potency of the test compound in response to IL-^2/anti-CD3, the median fluorescent intensity (MFI) of pSTAT5 was measured in CD4+ T cells. IC50 values were determined from analysis of the inhibition curves of MFI vs compound concentration. Data are expressed as pIC50 (negative decadic logarithm IC50) values.

JAK2 = target: T1, JAK2 (Homo sapiens, UniProt O60674); experiment: Assay 1: LanthaScreen biochemical JAK kinase assay, JAK2; conditions: converted from pIC50 by Cheng-Prusoff; ATP at Km 3 μM; read-out: JAK 2 pKi (converted)
T1 construct: GST; purchased Life Technologies
Protocol: A panel of four LanthaScreen JAK biochemical assays (JAK1, 2, 3 and Tyk2) were carried in a common kinase reaction buffer (50 mM HEPES, pH 7.5, 0.01% Brij-35, 10 mM MgCl2, and 1 mM EGTA). Recombinant GST-tagged JAK enzymes and a GFP-tagged STAT1 peptide substrate were obtained from Life Technologies.
The serially diluted compound was pre-incubated with each of the four JAK enzymes and the substrate in white 384-well microplates (Corning) at ambient temperature for lh. ATP was subsequently added to initiate the kinase reactions in 10 μL total volume, with 1% DMSO. […] The plates were allowed to incubate at ambient temperature for lh before being read on the EnVision reader (Perkin Elmer). Emission ratio signals (520 nm/495 nm) were recorded and utilized to calculate the percent inhibition values based on DMSO and background controls.
For dose-response analysis, percent inhibition data were plotted vs. compound concentrations, and IC50 values were determined from a 4-parameter robust fit model with the Prism software (GraphPad Software). Results were expressed as pIC50 (negative logarithm of IC50) and subsequently converted to pK1 (negative logarithm of dissociation constant, Ki) using the Cheng-Prusoff equation.

[2] = test system: IL-27 induced CXCL10 secretion in EpiAirway tissue cultures; experiment: Assay 15: IL-27 induced CXCL10 in human 3D airway cultures; format: cell-based; conditions: 192 h, Day 8, average from 3 or 4 donors, read-out: % inhibition of IL-27 induced CXCL10 secretion (±STDV)
Protocol: EpiAirway tissue cultures were obtained from Mattek (AIR-100). Cultures were derived from asthmatic donors. In a cell culture insert, human derived tracheal/bronchial epithelial cells were grown and differentiated on a porous membrane support, allowing an air-liquid interface with warmed culture medium below the cells and a gaseous test atmosphere above. Tissues were cultured in maintenance media (Mattek, AIR-100-MM) in a 37° C., 5% CO2 humidified incubator. Four donors were tested. On Day 0, tissue cultures were treated with test compounds at 10 μM, 1 μM and/or 0.1 μM. Compounds were diluted in dimethyl sulfoxide (DMSO, Sigma) to a final concentration of 0.1%. DMSO at 0.1% was used as a vehicle control. Test compounds were incubated with cultures for 1 hour at 37° C., 5% CO2, followed by the addition of pre-warmed media containing IFNγ (R&D Systems) or IL-27 (R&D Systems) at a final concentration at 100 ng/ml. Tissue cultures were maintained for 8 days. Media was replaced every 2 days with fresh media containing compounds and IFNγ or IL-27. On Day 8, tissue cultures and supernatants were collected for analysis. Supernatant samples were assayed for CXCL10 (IP-10) and CXCL9 (MIG) using luminex analysis (EMD Millipore). Data is expressed as % Inhibition +/−standard deviation (±STDV). Percent inhibition was determined by compound inhibitory potency against IFNγ or IL-27 induced CXCL10 or CXCL9 secretion compared to vehicle treated cells. Data is the average from 3 or 4 donors. Compound 1 was able to inhibit IFNγ induced CXCL10 secretion by 99%±2.0 (at 10 μM), 71%±19 (at […]) and 17%±12 (at 0.1 μM) when compared to vehicle control. Compound 1 was able to inhibit IFNγ induced CXCL9 secretion by 100%±0.3 (at 10 μM), 99%±0.9 (at 1 μM) and 74%±17 (at 0.1 μM) when compared to vehicle. […] Compound 1 was able to inhibit IL-27 induced CXCL9 secretion by 100%±0 (at 10 μM), 95%±3.7 (at 1 μM) and 75%±3.5 (at 0.1 μM) when compared to vehicle control.

T1 sequence (O60674 whole entry): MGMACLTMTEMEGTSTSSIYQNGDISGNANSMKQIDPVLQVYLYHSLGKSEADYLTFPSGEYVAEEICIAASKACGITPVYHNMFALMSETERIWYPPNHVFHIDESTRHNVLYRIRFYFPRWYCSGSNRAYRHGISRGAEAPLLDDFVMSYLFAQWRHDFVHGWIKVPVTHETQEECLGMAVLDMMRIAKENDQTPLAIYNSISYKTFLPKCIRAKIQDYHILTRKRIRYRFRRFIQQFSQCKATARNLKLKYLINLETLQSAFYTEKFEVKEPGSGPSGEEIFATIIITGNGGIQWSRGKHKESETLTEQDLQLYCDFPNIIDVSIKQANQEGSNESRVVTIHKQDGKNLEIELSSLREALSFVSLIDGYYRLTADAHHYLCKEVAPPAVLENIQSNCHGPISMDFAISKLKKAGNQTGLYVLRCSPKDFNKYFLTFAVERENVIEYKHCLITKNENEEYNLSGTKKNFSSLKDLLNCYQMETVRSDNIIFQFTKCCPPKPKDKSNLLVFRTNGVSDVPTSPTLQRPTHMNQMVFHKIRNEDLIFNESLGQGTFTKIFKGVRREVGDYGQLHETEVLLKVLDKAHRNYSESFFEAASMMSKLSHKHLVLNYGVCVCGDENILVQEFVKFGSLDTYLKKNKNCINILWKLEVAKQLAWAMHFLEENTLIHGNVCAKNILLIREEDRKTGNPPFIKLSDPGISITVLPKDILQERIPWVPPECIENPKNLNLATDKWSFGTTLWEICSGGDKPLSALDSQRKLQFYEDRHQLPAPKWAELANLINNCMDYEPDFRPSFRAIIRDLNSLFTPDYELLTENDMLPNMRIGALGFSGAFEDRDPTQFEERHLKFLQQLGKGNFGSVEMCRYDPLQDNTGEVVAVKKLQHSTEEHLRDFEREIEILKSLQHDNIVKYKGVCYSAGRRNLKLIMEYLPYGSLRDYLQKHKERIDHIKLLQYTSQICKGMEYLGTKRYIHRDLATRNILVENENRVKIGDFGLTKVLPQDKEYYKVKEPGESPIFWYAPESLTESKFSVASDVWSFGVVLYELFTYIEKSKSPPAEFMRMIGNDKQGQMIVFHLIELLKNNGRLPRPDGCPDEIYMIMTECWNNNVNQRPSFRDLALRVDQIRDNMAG

## CCc1cc(O)c(F)cc1-c1ccc2c(-c3nc4c([nH]3)CCN(C3CCN(C)CC3)C4)n[nH]c2c1 [Compound 1, 5-ethyl-2-fluoro-4-(3-(5-(1-methylpiperidin-4-yl)-4,5,6,7-tetrahydro-1H-imidazo[4,5-c]pyridin-2-yl)-1H-indazol-6-yl)phenol]
[1]
  IC50: ~20 nM
JAK2
  Ki: 0.0158 nM
[2]; at 0.1 μM
  inhibition at 0.1 µM: 73%
[2]; at 1 μM
  inhibition at 1 µM: 98%
[2]; at 10 μM
  inhibition at 10 µM: 108%
